{"source": "paper PMC7613620", "about": "“Reaction hijacking of tyrosine tRNA synthetase as a whole-of-life-cycle antimalarial strategy” (Science (New York, N.Y.), 2022)", "key": {"P. falciparum (3D7)": {"tested_on": "P. falciparum (3D7)", "assay": "P. falciparum (3D7) culture growth inhibition, 72 h", "type": "cell-based, Plasmodium falciparum", "settings": "for IC50: Plasmodium falciparum", "procedure": "(1 picture or pasted object on this page, not shown here)\n553 Sigma-Aldrich) for 48-72 h. For drug pulse assays, tightly synchronized parasites (1-1.5% parasitemia,\n554 0.2% final hematocrit) were added to the plates and incubated for 3 h. Drugs were removed and the\n555 parasitemia assessed in the trophozoite stage of the next cycle.\n557 Compounds were tested against a range of drug resistant field isolates and laboratory strains using a\n558 modified [3H]-hypoxanthine incorporation assay, as previously reported (46). Field isolates 7G8, Cam3.1,\n559 Dd2, K1, TM90C2B and NF54 were obtained from MR4 (www.beiresources.org).\n561 Mammalian cell culture experiments\n562 The HepG2 (Human hepatocyte carcinoma) cell line was procured from ATCC (American Type\n563 Culture Collection, Manassas, USA; HB-8065) and viability assessed using Cell Titer-GLO luminescent\n564 cell viability assay reagents (Promega, catalogue number: G7570) (47, 48). For the assay, 2000 cells/well\n565 were plated in 384-well plates 24 h prior to the experiment and incubated at 37°C in a CO2 incubator. The\n566 medium was removed and cells were treated with fresh medium containing either vehicle (0.5% DMSO)\n567 or serially diluted test compounds or doxorubicin (1.3 nM to 25 µM) in a final volume of 50 µl/well and\n568 further incubated for 72 h at 37°C in a CO2 incubator.\n569 were treated with 5 µl of 1% Triton X-100 (final assay conc. 0.1%). Following incubation, 25 µl of medium\n570 was discarded and 25 µl of Cell Titer-GLO reagent was added to each well and the plate was kept on a plate\n571 shaker for 15 min at 25°C with shaking at 300 rpm. Luminescence signals were measured in a Spectramax\n572 M5 reader (Molecular Devices).\n574 H1650 is a human lung cancer derived ATG7-null cell line (49) that can be used to assess effects on targets\n576 adenocarcinoma; bronchoalveolar carcinoma). Other cells lines used are: H460 (NCI-H460; human lung;\n577 carcinoma; large cell lung cancer; ATCC: HTB-177); and HCT116 (human colon; colorectal carcinoma;\n578 ATCC: CCL-247; Lot : 5056139). Each of the cell lines was received from the American Type Culture\n579 Collection (ATCC) and passaged twice before freezing. Cells were cultured in the presence or absence of\n580 inhibitors and cell viability was assessed by comparing the ATP content in compound-treated wells with\n581 that in DMSO-treated wells as previously described (11).\n583 HeLa cells (human cervical adenocarcinoma; genome sequenced (Garvin Institute, Australia) and verified"}, "[1]": {"settings": "SCID, mouse, in vivo, ip, 50 mg/kg", "procedure": "625 of 50 mg/kg of compound on day 3 post-infection and measuring the effect on blood parasitemia by\n626 microscopic analysis of Giemsa-stained blood smears (on days 3, 4, 5, 6 and 7 post-infection). Mice were\n630 Human biological samples were sourced ethically; and their research use was in accord with the terms of\n631 the informed consent. All animal studies were ethically reviewed and carried out in accredited facilities in\n632 accordance with the relevant country’s directives and the institution’s Policy on the Care, Welfare and\n633 Treatment of Animals.\n635 Plasma exposure in infected mouse model\n637 blood samples (20 μL) were obtained at time points up to 24 hours after the first administration. Protein was\n638 precipitated with acetonitrile and the remaining compound was assessed by LC-MS/MS in the selected reaction\n641 Rat pharmacokinetics (PK) analyses\n642 Sprague-Dawley rats (11 weeks old) were sourced from Hilltop Lab Animals, Inc (Scottdale, Pennsylvania,\n643 USA). ML901 was formulated in EtOH: DMAC: PEG400: H2O at 1:1:4:4 (v/v) and 10% captisol in 50 […]\n648 0.5% formic acid in methanol and the supernatants were analysed by positive ion electrospray LC-MS for\n649 the administered compound. Non-compartmental pharmacokinetic parameters were calculated from […]\n660 IGM Genomics Center on the Illumina HiSeq 2500 in RapidRun mode to generate 100bp paired-end reads."}}, "note": "Where two headings read alike, the source gives them in different places."}
{"smiles": "Nc1ncnc2c1c(OC(F)F)nn2[C@@H]1O[C@H](COS(N)(=O)=O)[C@@H](O)[C@H]1O", "note": "[ML901]", "values": [{"measurement": "higher selectivity than AMS", "setting": "P. falciparum (3D7); P. falciparum versus mammalian cell lines, compared with AMS", "result": "> 1,000 fold"}, {"measurement": "IC50", "setting": "P. falciparum (3D7); read-out: Pf3D7 IC50(72h), P. falciparum 3D7, 72 h", "result": "2 ± 0.1", "unit": "nM"}, {"measurement": "IC50", "setting": "P. falciparum (3D7); 3D7 parent of the in vitro evolution experiment, 72 h, read-out: IC50 (3D7)", "result": "1.9 ± 0.1", "unit": "nM"}, {"measurement": "selectivity towards P. falciparum", "setting": "P. falciparum (3D7); versus different mammalian cell lines", "result": "800- to 5,000 fold"}, {"measurement": "exposure (area under the curve)", "setting": "[1]", "result": 580, "unit": "µM·h"}]}
